The text below walks through data of article PMC12135943, “Beyond Barriers, Big Crystallization Hurdles: Atropisomerism in Beyond Rule of Five Compounds Explored by Computational and NMR Studies” (Molecular Pharmaceutics, 2025).

What all share (format): physicochemical
The nature of data set [1]: Approximate solvent solubility (ASS). The settings on record: for solubility: organic solvents and solvent systems, 40 °C, organic solvent or mixture, thermodynamic from solid, stirring at 40 °C. As for the experimental part: The approximate solubility of both compounds was determined in various organic solvents and solvent systems with a range of properties, including protic, aprotic, polar, and nonpolar solvents. Solubility tests were conducted under stirring at 40 °C, with concentrations ranging from 400 to 5 mg/mL. Solvents in which the solubility was below 5 mg/mL were classified as antisolvents. […]
Experimental procedures ACBI1:
Approximate solvent solubility (ASS):
Approximately 20.00 mg were weighed in HPLC vials, and a magnetic stirrer bar was inserted. Water bath temperature was set at 40 °C, and the initial 25 μL of the appropriate solvent was added into the vial. Stirring was initiated and the slurries were brought up to the desired set temperature. Observations were recorded and the next addition was performed according to the Table S1. The samples were stirred at 40 °C overnight, cooled down to ambient conditions and observations were recorded after 24 h.

The nature of data set [2]: Dynamical vapor sorption (DVS). The settings on record: crystalline solvent-free form; 0-90% RH. As for the experimental part:
Dynamical vapor sorption data were recorded on a DVS intrinsic system from surface measurement systems (SMS) under a N2 atmosphere. Water sorption/desorption isotherms were recorded from 0% to 90% RH followed by an additional run from 90% to 0% RH in equal steps of 10% RH.

Data set [3] can be described thus: Variable temperature NMR rotational barrier calculation (modified Eyring equation). Particulars: for rotational energy barrier size: conclusion of NMR experiments. As for the experimental part: This equation allows quick evaluation of the rotational energy barrier as follows: ΔG^‡=RTcoal[22.96+ln(Tcoal/δν)] where R is the universal gas constant [J/mol·K], T coal is the coalescence temperature [K], and δν is the difference of the Larmor frequencies in [Hz] for the two observed signals for the rotameric pair. The energy calculated using this equation is given in J/mol, which is then converted into kcal/mol.
^1H NMR spectra were recorded in a suitable deuterated solvent using a Bruker Avance IIIHD NMR spectrometer with a working base frequency of 400 MHz, equipped with a helium cryogenically cooled ^1H/^13C /^15N TCI probehead. The temperature limits of the probehead are from −40 °C up to 150 °C. The ^1H NMR experiments are recorded at a proton resonance frequency of 400.13 MHz, and 100.61 MHz was used for the ^13C frequency. The temperature is regulated using a Bruker Smart Variable temperature unit and calibrated using NMR-thermometer sample calibration. The assignment of the proton and carbon signals is performed using ^1H and ^13C NMR experiments, such as 1D ^1H, 1D ^13C, and 2D experiments: ^1H–^1H COSY, ^1H–^1H ROESY, ^1H–^13C HSQC, and ^1H–^13C HMBC. The chemical shifts (δH and δC) are reported in parts per million referenced to the 0.01% of nondeuterated signal of the deuterated solvent in the proton-based experiments and to the signal of the fully deuterated solvent signal in the carbon dimensions.
The evaluation of the energy barrier for the single bond rotation by experiment serves as key information for the crystallization properties of the bRo5-like molecules. Single one-dimensional proton measurements at various temperatures in 10 K steps allow the assessment of the coalescence temperature and the calculation of the rotational barrier energy, as described below. Both model compounds, ACBI1 and BI201335, show a clearly observable doubled signal set for some of the signals in the NMR spectra at 303 K. This could be attributed to presence of rotamers and/or diastereoisomers, as shown in Figure and Figure for ACBI1 and Figure and Figure for BI201335. The discernment of whether the multiple of signal sets is observed due to a slow convergence between two or more forms or the presence of diastereoisomers is most easily accessed by performing a two-dimensional proton ROESY experiment. […] At this temperature, the exchange between the proton signals could be clearly observed by the presence of cross peaks with the same phase as the diagonal peaks. The Nuclear Overhauser Enhancement (NOE) proximity cross peaks for small molecules have an antidiagonal phase. This serves as proof for the presence of rotamers with rotational barrier that could not be overcome at 303 K and therefore no exchange cross peaks are measured. […] In contrast to the ACBI1, in the ROESY spectrum at 303 K for BI201335 the exchange cross peaks are measurable.
The variable temperature NMR experiments were performed in the temperature range from 303 to 393 K with a 10 K step in between the experiments. In the case of BI201335 there are two rotameric signal pairs for which an attempt to calculate the rotational barrier could be performed. […] An estimation of the potential rotational barrier nevertheless allows an approximation within a range of energy barriers to be calculated: if the coalescence temperature was 393 K, the rotational barrier for this signal pair would be 18.8 kcal/mol. […] At the last measured point of 393 K (clearly below the experimental coalescence temperature), the rotational barrier would be 19.4 kcal/mol. At 423 K the calculated energy barrier would be 20.9 kcal/mol, and at 453 K it would be 22.4 kcal/mol. Based on the lack of exchange signals in the ROESY spectra at lower temperatures and the shape of the signals at 393 K, a coalescence temperature around 450 K seems most plausible. Thus, the rotational barrier for ACBI1 is estimated as 22.4 kcal/mol, with an error range of about 1–1.5 kcal/mol.

[4] abbreviates: solvents in which the compound was soluble, read-out: approximate solubility in organic solvents.

Converted amounts (≈) assume the structure as drawn. Where two headings read alike, the source gives them in different places.

For `C=C[C@@H]1C[C@]1(NC(=O)[C@@H]1C[C@@H](Oc2cc(-c3csc(NC(=O)C(C)C)n3)nc3c(Br)c(OC)ccc23)CN1C(=O)[C@@H](NC(=O)OC1CCCC1)C(C)(C)C)C(=O)O` [BI201335], the solubility in data set [1] (setting [4]) was 75 to 400 mg/mL (≈ 86.2 to 460 mM). Besides, the “hygroscopicity (DVS isotherm plot)” value in data set [2] was “slight hygroscopicity”. In data set [3], the “rotational energy barrier size” value is “below 20 kcal/mol”. Besides, the coalescence temperature in data set [3] (signal pair 4.46 and 4.76 ppm at 303 K) was 393 K. Besides, the rotational barrier in data set [3] (signal pair 4.46 and 4.76 ppm, coalescence temperature 393 K) was 18.9 kcal/mol; in data set [3] (signal pair 4.62 and 4.95 ppm, if the coalescence temperature was 393 K (not reached)), 18.8 kcal/mol. Moreover, the rotational energy barrier in data set [3] (signal pair 4.62 and 4.95 ppm, estimated coalescence temperature 403 K) is 19.3 kcal/mol. Moreover, the “coalescence temperature (estimated)” value in data set [3] (signal pair 4.62 and 4.95 ppm, not converged at 393 K) is listed as “around 403 K”.

Consider `Cc1ncsc1-c1ccc(CNC(=O)C2CC(O)CN2C(=O)C(NC(=O)C2(F)CC2)C(C)(C)C)c(OCCOc2ccc(CN3CCN(c4cc(-c5ccccc5O)nnc4N)CC3)cc2)c1` (centres unmarked) [ACBI1], for which the hydrophobicity entry in data set [1] (from solvent solubility test (Table S1)) is listed as “hydrophobic”. In addition, the solubility was < 5 mg/mL in data set [1] (a few solvents classified as potential antisolvents, read-out: approximate solubility in antisolvents) and 50 to 400 mg/mL (≈ 53.4 to 427 mM) in data set [1] (setting [4]). Further, in data set [3] (calculated for 393 K, clearly below the coalescence temperature), the rotational barrier was 19.4 kcal/mol. Further, the calculated energy barrier is on record as 20.9 kcal/mol in data set [3] (calculated for 423 K) and 22.4 kcal/mol in data set [3] (calculated for 453 K). Also, the “rotational energy barrier size” value in data set [3] is “above 20 kcal/mol”. Moreover, in data set [3] (error range of about 1–1.5 kcal/mol), the “rotational barrier (estimated)” value was 22.4 kcal/mol. For the same compound, the “coalescence temperature (most plausible)” value in data set [3] (not reached at 393 K, estimated from signal shape and ROESY) is “around 450 K”.
